Data from patent publication US8124645B2, “LPA receptor antagonist” (Ono Pharmaceutical Co., Ltd., priority 2002, dated 2012).

These molecules were tested against T1, human EDG-2 (Homo sapiens, UniProt Q92633) (assay: Evaluation of EDG-2 antagonistic activity by monitoring the change of intracellular calcium ion concentration). Conditions: CHO cells overexpressing human EDG-2 gene; LPA final concentration 100 nM; intracellular calcium ion concentration (Fura2-AM).
T1 construct: expressed in transfected cells; host or cells: Chinese hamster ovary (CHO) cells
T1 sequence (Q92633 whole entry): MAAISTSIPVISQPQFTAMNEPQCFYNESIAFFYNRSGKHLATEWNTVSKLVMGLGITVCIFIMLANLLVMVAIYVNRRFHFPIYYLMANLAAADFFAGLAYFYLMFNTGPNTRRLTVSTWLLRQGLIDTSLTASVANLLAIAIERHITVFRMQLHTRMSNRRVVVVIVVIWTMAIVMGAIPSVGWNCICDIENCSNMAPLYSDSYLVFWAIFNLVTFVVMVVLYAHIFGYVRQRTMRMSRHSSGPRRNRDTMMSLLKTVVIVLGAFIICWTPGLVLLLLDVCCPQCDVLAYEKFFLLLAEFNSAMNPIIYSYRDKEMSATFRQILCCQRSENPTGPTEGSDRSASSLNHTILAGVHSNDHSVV
Assay type: cell-based
Description: A series of the procedure is based on the basic gene manipuration technique, that is gene overexpressed cells are prepared and a conventional method was utilized. The usual method of measurement was improved for getting enhancement of measurement precision and/or measurement sensitivity of the evaluation of compounds in the present invention. A detailed method of the experiment was shown in the following clause.
Evaluation of EDG-2 antagonistic activity by monitoring the change of intracellular calcium ion concentration
Evaluation of EDG-2 antagonistic activity was carried out by using Chinese hamster ovary (CHO) cells which overexpressed human EDG-2 gene. Those cells were cultured with Ham's F12 medium (GIBCO BRL company No. 11765-047) containing 10% FBS (fetal bovine serum), penicillin/streptomycin and blasticidin (5 μg/ml). At first in order to uptake Fura2-AM (Dojindo company No. 348-05831) into the cells, cells were incubated for 60 minutes at 37 degrees in Fura2-AM (5 μM) solution [Ham's F12 medium containing 10% FBS, 20 mM HEPES buffer (pH 7.4) and 2.5 mM probenecid (Sigma company No. P-8761)]. Next, it was washed with Hanks solution containing HEPES buffer (20 mM, pH 7.4) and probenecid (2.5 mM) once, and immersed into the Hanks solution. Plates were set in fluorescent drug screening system (Hamamatsu photonics company, FDSS-2000) and intracellular calcium ion concentration was measured for 30 seconds with no stimulation and then solution of the compound of the present invention of formula (I) was added. Five minutes after adding thereto LPA (final concentration: 100 nM) was added, the increase of intracellular calcium ion concentrations before and after the addition of LPA (excitation wave length: […]; fluorescent wave length: […]) were measured every 3 seconds. The compound of the present invention represented by the formula (I) was dissolved in dimethyl sulfoxide (DMSO), and it was added so that the final concentration became 1 nM to 10 μM. 1-oleoyl (18:1)-LPA (Sigma) or 1-linolenoyl (18:3)-LPA was used as LPA. […]

| IC50 | SMILES |
| --- | --- |
| 0.095 µM | COc1cc(OC)cc(C(=O)N(CCCc2ccccc2)Cc2ccc(Oc3ccccc3C(=O)O)cc2)c1 [3(33), 2-(4-(N-(3,5-dimethoxyphenylcarbonyl)-N-(3-phenylpropyl)aminomethyl)phenyloxy)benzoic acid] |
| 0.11 µM | COc1cc(C(=O)C(CCCc2ccccc2)Cc2ccc(Oc3ccccc3C(=O)O)cc2)cc(OC)c1OC (stereo not drawn) [8(1), 2-(4-(2-(3,4,5-trimethoxyphenylcarbonyl)-5-phenylpentyl)phenyloxy)benzoic acid] |
| 0.15 µM | COc1cc(C(=O)N(CCCc2ccccc2)Cc2ccc(CC(=O)O)cc2)cc(OC)c1C [Example 2(4), (4-(N-(3,5-dimethoxy-4-methylphenylcarbonyl)-N-(3-phenylpropyl)aminomethyl)phenyl)acetic acid] |
